Experimental data from US12440496B2, “Natriuretic peptide receptor a agonists useful for the treatment of cardiometabolic diseases, kidney disease and diabetes” (Merck Sharp & Dohme LLC, priority 2019, dated 2025).
Structures can show the parent of a compound that is named as a salt.

biological target: T1, hNPRA (Homo sapiens, UniProt P16066); experiment: NPRA Functional Cell Assay (cGMP HTRF, NPRA HEK JumpIn stable cells); assay type: cell-based; conditions: cGMP production, 1 hour at 37° C., 10-point dose response
T1 construct: expressed in transfected cells
T1 sequence (P16066 33-1061): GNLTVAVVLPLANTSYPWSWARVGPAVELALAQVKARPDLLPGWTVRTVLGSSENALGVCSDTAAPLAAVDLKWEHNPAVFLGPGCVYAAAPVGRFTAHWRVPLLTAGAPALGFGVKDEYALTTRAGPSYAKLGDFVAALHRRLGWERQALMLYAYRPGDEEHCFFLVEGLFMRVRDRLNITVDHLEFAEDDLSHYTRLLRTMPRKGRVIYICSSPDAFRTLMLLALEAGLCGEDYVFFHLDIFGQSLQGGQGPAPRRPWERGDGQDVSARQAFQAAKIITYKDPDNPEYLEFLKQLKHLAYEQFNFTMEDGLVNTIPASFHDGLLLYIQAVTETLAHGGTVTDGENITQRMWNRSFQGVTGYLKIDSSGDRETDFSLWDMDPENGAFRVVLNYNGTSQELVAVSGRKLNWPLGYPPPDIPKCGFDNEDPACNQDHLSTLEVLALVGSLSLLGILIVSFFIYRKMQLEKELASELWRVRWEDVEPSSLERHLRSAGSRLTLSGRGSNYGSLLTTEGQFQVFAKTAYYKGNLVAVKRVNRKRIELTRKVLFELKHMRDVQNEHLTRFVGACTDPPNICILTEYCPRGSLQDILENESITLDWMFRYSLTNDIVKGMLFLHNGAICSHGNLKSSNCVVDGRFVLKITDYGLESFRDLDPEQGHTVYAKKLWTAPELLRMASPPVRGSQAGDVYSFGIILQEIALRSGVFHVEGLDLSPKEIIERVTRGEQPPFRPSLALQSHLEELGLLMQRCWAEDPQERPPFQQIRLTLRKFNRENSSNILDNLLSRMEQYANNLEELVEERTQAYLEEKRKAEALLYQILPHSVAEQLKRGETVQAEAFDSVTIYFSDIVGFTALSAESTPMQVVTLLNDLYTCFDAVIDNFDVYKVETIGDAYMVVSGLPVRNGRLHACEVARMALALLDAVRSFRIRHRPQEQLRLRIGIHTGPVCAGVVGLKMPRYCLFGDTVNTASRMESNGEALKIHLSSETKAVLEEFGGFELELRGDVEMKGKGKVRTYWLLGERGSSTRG
Outline: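 cGMP HTRF read-out after 1 hour compound treatment at 37° C. of human NPRA-expressing HEK JumpIn cells, 1500 cells/well, in buffer with phosphodiesterase inhibitors IBMX and RO20 (100 uM each). Signal converted to [cGMP] by calibration curve; EC50s fitted by 4-parameter logistic; 50 nM h-ANP as positive response.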

`CC(C)(C)[C@H]1CCc2nc3sc(C(=O)N[C@H](CCN4CCC(O)CC4)c4cccc(C(=O)N5CC6(CCCNC6)C5)c4)nc3cc2C1` (racemic) [Example 131, rac-(7S)-7-tert-butyl-N-[rac-(1R)-1-[3-(2,8-diazaspiro[3.5]nonane-2-carbonyl)phenyl]-3-(4-hydroxy-1-piperidyl)propyl]-5,6,7,8-tetrahydrothiazolo[5,4-b]quinoline-2-carboxamide] and `CC(C)(C)[C@H]1CCc2nc3sc(C(=O)N[C@H](CCN4CCC(O)CC4)c4cccc(C(=O)N[C@@H]5CCNC5)c4)nc3cc2C1` (racemic) [Example 130, rac-(7S)-7-tert-butyl-N-[rac-(1R)-3-(4-hydroxy-1-piperidyl)-1-[3-[[rac-(3R)-pyrrolidin-3-yl]carbamoyl]phenyl]propyl]-5,6,7,8-tetrahydrothiazolo[5,4-b]quinoline-2-carboxamide] are within 1.5-fold of each other in EC50: 96.7 nM for the first, 96.5 nM for the second.

Going from `CN(C)S(=O)(=O)Nc1ccc([C@@H](CCN2CC=CCC2)NC(=O)c2nc3cc4c(nc3s2)CC[C@H](C(C)(C)C)C4)cn1` (racemic) [Example 208, rac-(7S)-7-tert-butyl-N-[rac-(1R)-1-[6-(dimethylsulfamoylamino)-3-pyridyl]-3-(1,2,3,6-tetrahydropyridin-1-ium-1-yl)propyl]-5,6,7,8-tetrahydrothiazolo[5,4-b]quinoline-2-carboxamide; 2,2,2-trifluoroacetate] to `CN(C)CC[C@@H](NC(=O)c1nc2cc3c(nc2s1)CC[C@H](C(C)(C)C)C3)c1cccc(C(=O)N[C@H]2CCN(C)C2)c1` (racemic) [Example 87, rac-(7S)-7-tert-butyl-N-[rac-(1R)-3-(dimethyl-amino)-1-[3-[rac-(3S)-1-methylpyrrolidin-3-yl]carbamoyl]phenyl]propyl]-5,6,7,8-tetrahydrothiazolo[5,4-b] quinoline-2-carboxamide], the EC50 falls from 712 nM to 207 nM (3.4-fold).

Going from `CC(C)(C)[C@H]1CCc2nc3sc(C(=O)N[C@H](CCN4CCCCC4)c4ccc(-c5cnc(O)c(F)c5)cc4)cc3cc2C1` [Example 238, (S)-6-(tert-butyl)-N-((R)-1-(4-(5-fluoro-6-hydroxypyridin-3-yl)phenyl)-3-(piperidin-1-yl)propyl)-5,6,7,8-tetrahydrothieno[2,3-b]quinoline-2-carboxamide] to `CC(C)(C)[C@H]1CCc2nc3sc(C(=O)N[C@H](CCN4CCC(C(F)F)CC4)c4ccc(-c5ccc(=O)[nH]c5)cc4)cc3cc2C1` (racemic) [Example 60, rac-(6S)-6-tert-butyl-N-[rac-(1R)-3-[4-(difluoromethyl)piperidin-1-ium-1-yl]-1-[4-(6-oxo-1H-pyridin-3-yl)phenyl]propyl]-5,6,7,8-tetrahydrothieno[2,3-b]quinoline-2-carboxamide;formate], the EC50 rises from 235 nM to 1010 nM (4.3-fold).

First: COCCN1CCN(CC[C@@H](NC(=O)c2cc3cc4c(nc3s2)CC[C@H](C(C)(C)C)C4)c2ccc(-c3ccc(=O)[nH]c3)cc2)CC1 (racemic) [Example 66, rac-(6S)-6-tert-butyl-N-[rac-(1R)-3-[4-(2-methoxyethyl)piperazin-1-yl]-1-[4-(6-oxo-1H-pyridin-3-yl)phenyl]propyl]-5,6,7,8-tetrahydrothieno[2,3-b]quinoline-2-carboxamide]
Second: CC(C)(C)[C@H]1CCc2nc3sc(C(=O)N[C@H](CCN4CCC[C@H]4CO)c4ccc(-c5ccc(=O)[nH]c5)cc4)cc3cc2C1 (racemic) [Example 38, rac-(6S)-6-tert-butyl-N-[rac-(1R)-1-[4-(6-oxo-1H-pyridin-3-yl)phenyl]-3-[rac-(2S)-2-(hydroxymethyl)pyrrolidin-1-ium-1-yl]propyl]-5,6,7,8-tetrahydrothieno[2,3-b]quinoline-2-carboxamide;formate]
The EC50 of the first is 2.3-fold higher: 1330 nM for the first, 582 nM for the second. The second is the more potent here.

Going from `CC1(C)CN(CC[C@@H](NC(=O)c2nc3cc4c(nc3s2)CC[C@H](C(C)(C)C)C4)c2ccc(-c3ccc(=O)[nH]c3)cc2)C1` (racemic) [Example 77, rac-(7S)-7-tert-butyl-N-[rac-(1R)-3-(3,3-dimethylazetidin-1-yl)-1-[4-(6-oxo-1H-pyridin-3-yl)phenyl]propyl]-5,6,7,8-tetrahydrothiazolo[5,4-b]quinoline-2-carboxamide] to `CC(C)(C)[C@H]1CCc2nc3sc(C(=O)N[C@H](CCN4CCC(O)CC4)c4ccc(-c5ccc(=O)[nH]c5)cc4)nc3cc2C1` (racemic) [Example 79, rac-(7S)-7-tert-butyl-N-[rac-(1R)-3-(4-hydroxypiperidin-1-ium-1-yl)-1-[4-(6-oxo-1H-pyridin-3-yl)phenyl]propyl]-5,6,7,8-tetrahydrothiazolo[5,4-b]quinoline-2-carboxamide; formate], the EC50 falls from 681 nM to 270 nM (2.5-fold). The second is the more potent here.

First: CC(C)(C)[C@H]1CCc2nc3sc(C(=O)N[C@H](CCN4CCC(O)CC4)c4ccc(-c5cc(F)c(O)c(F)c5)cc4)nc3cc2C1 (racemic) [Example 184, rac-(7S)-7-tert-butyl-N-[rac-(1R)-1-[4-(3,5-difluoro-4-hydroxy-phenyl)phenyl]-3-(4-hydroxypiperidin-1-ium-1-yl)propyl]-5,6,7,8-tetrahydrothiazolo[5,4-b]quinoline-2-carboxamide; 2,2,2-trifluoroacetate]
Second: CC(C)(C)[C@H]1CCc2nc3sc(C(=O)N[C@H](CCN4CCC(O)CC4)c4ccc(-c5c[nH]c(=O)c(F)c5)cc4)nc3cc2C1 [Example 82, (7S)-7-tert-butyl-N-[(1R)-1-[4-(5-fluoro-6-hydroxy-3-pyridyl)phenyl]-3-(4-hydroxy-1-piperidyl)propyl]-5,6,7,8-tetrahydrothiazolo[5,4-b]quinoline-2-carboxamide]
The EC50 of the first is 8.7-fold higher: 1700 nM for the first, 196 nM for the second.

Going from `Cn1cnnc1-c1ccc([C@@H](CCN2CCC(O)CC2)NC(=O)c2nc3cc4c(nc3s2)CC[C@H](C(C)(C)C)C4)cc1` (racemic) [Example 170, rac-(7S)-7-tert-butyl-N-[rac-(1R)-3-(4-hydroxy-1-piperidyl)-1-[4-(4-methyl-1,2,4-triazol-3-yl)phenyl]propyl]-5,6,7,8-tetrahydrothiazolo[5,4-b]quinoline-2-carboxamide] to `CC(C)(C)[C@H]1CCc2nc3sc(C(=O)N[C@H](CCN4CCC(O)CC4)c4ccc(-c5cc(F)c(O)cn5)cc4)nc3cc2C1` [Example 228, (S)-7-(tert-butyl)-N-((R)-1-(4-(4-fluoro-5-hydroxypyridin-2-yl)phenyl)-3-(4-hydroxypiperidin-1-yl)propyl)-5,6,7,8-tetrahydrothiazolo[5,4-b]quinoline-2-carboxamide], the EC50 falls from 863 nM to 305 nM (2.8-fold).

Going from `CC(C)(C)[C@H]1CCc2nc3sc(C(=O)N[C@H](CCN4CCC(O)C4)c4ccccc4)cc3cc2C1` (stereo partly drawn) [Example 261, (6S)-6-tert-butyl-N-[(1R)-3-(3-hydroxypyrrolidin-1-yl)-1-phenylpropyl]-5,6,7,8-tetrahydrothieno[2,3-b]quinoline-2-carboxamide] to `CC(C)(C)[C@H]1CCc2nc3sc(C(=O)N[C@H](CCN4CCCC(c5cccnc5)C4)c4cccc(NS(C)(=O)=O)c4)cc3cc2C1` (mixture of isomers) [Example 18, ammonium; methylsulfonyl-[3-[rac-(1R)-3-[3-(3-pyridyl)-1-piperidyl]-1-[rac-(6S)-6-tert-butyl-5,6,7,8-tetrahydrothieno[2,3-b]quinoline-2-carbonyl]amino]propyl]phenyl]azanide], the EC50 falls from 6320 nM to 1280 nM (4.9-fold). The second is the more potent here.

`CN(C)CC[C@@H](NC(=O)c1cc2cc3c(nc2s1)CC[C@H](C(C)(C)C)C3)c1cccc(NS(C)(=O)=O)c1` (racemic) [Example 9, ammonium; methylsulfonyl-[3-[rac-(1R)-3-(dimethylamino)-1-[rac-(6S)-6-tert-butyl-5,6,7,8-tetrahydrothieno[2,3-b]quinoline-2-carbonyl]amino]propyl]phenyl] azanide] and `CC(C)(C)[C@H]1CCc2nc3sc(C(=O)N[C@H](CCN4CCCC5(CC5)C4)c4cccc(NS(C)(=O)=O)c4)cc3cc2C1` (racemic) [Example 13, ammonium; methylsulfonyl-[3-[rac-(1R)-3-(5-azaspiro[2.5]octan-5-yl)-1-[[rac-(6S)-6-tert-butyl-5,6,7,8-tetrahydrothieno[2,3-b]quinoline-2-carbonyl]amino]propyl]phenyl] azanide] are within 1.5-fold of each other in EC50: 708 nM for the first, 809 nM for the second.

In the case of `CC(C)(C)[C@H]1CCc2nc3sc(C(=O)N[C@H](CCNC4CCOCC4)c4ccc(-c5ccc(=O)[nH]c5)cc4)cc3cc2C1` (racemic) [Example 36, [rac-(3R)-3-[4-(6-oxo-1H-pyridin-3-yl)phenyl]-3-[rac-(6S)-6-tert-butyl-5,6,7,8-tetrahydrothieno[2,3-b]quinoline-2-carbonyl]amino]propyl]-tetrahydropyran-4-yl-ammonium;formate], the EC50 is reported as 557 nM.
